No end group written: not given here.
Experiments:
[1] = system: HUVECs; assay: Blood vessel (tube) formation assay on Matrigel; type: cell-based, human; settings: 4 hours, vs. control
Experimental: HUVECs (20,000 cells/well) were seed on a layer of previously polymerized Matrigel and treated with or without the first peptide and the second peptide. The Matrigel culture was incubated at 37° C. After 4 hours, changes in cell morphology were captured using a phase-contrast microscope (×40). Each sample was assayed in duplicate, and independent experiments were repeated three times. *P<0.05, **P,0.01, ***P<0.001 (vs. control).
HUVECs (20,000 cells/well) were seeded on a layer of previously polymerized Matrigel, treated with the visfatin-derived peptides, and then incubated in a 5% CO2 incubator at 37° C. for 4 hours. Then, changes in the cell morphology were observed and photographed using a phase-contrast microscope at 40× magnification. Each sample was assayed in duplicate, and independent experiments were repeated three times. Angiogenesis was analyzed with ImageJ software using an angiogenesis analyzer (Bethesda, MD, USA).

[2] = system: HUVECs; assay: MTT cytotoxicity assay; type: cell-based, human; settings: 0.1 μM, 0.5 μM, 1.0 μM and 2.0 μM, incubated overnight
Experimental: HUVECS (PromoCell, Heidelberg, Germany) were cultured in endothelial basal medium 2 (EBM) supplemented with Supplement Mix (PromoCell) containing 2% fetal bovine serum (FBS). The Supplement Mix consisted of 5 ng/mL epidermal growth factor (EGF), 10 ng/ml basic fibroblast growth factor (bFGF), 20 ng/mL insulin-like growth factor (IGF), 0.5 ng/mL VEGF, 1 ug/mL ascorbic acid, 22.5 ug/mL heparin, and 0.2 ug/mL hydrocortisone. In some experiments, cells were cultured in EBM medium supplemented with Supplement Mix, and cells between passages 2 and 7 were used in all experiments. Cells were cultured for 24 hours in a 5% CO2 incubator at a 37° C.
HUVECs were seeded at a density of 10,000 cells in 96-well plates (SPL, Korea) and incubated overnight with EBM-2 medium containing visfatin (1,000 ng/ml) and each of the peptides with the highest affinity, obtained from docking simulation, in a 5% CO2 incubator at 37° C. MIT reagent (Sigma-Aldrich) was added to each well to a final concentration of 0.5 mg/ml. After 4 hours, the medium was removed, the formazan crystals formed in the cells were dissolved in dimethyl sulfoxide (DMSO), and the absorbance of the formazan solution was measured at a wavelength of 540 nm using a Synergy HTX Multi-Mode Reader (BIO-TEK, Vermont, USA). Each sample was assayed in triplicate. […]

## basic fibroblast growth factor [bFGF]
[1]; second peptide except at the 2.0 μM concentration
  number of master junctions (tube formation): significantly increased
[1]; positive controls
  number of meshes (tube formation): not significantly changed

## EYKLHDFGYRGV [Peptide 2, EYKLHDFGYRGV]
[2]
  cell viability of HUVECs (cytotoxicity): did not affect the viability of the cells

## LEYKLHDFGY [Peptide 1, LEYKLHDFGY]
[2]
  cell viability of HUVECs (cytotoxicity): did not affect the viability of the cells

Reference: patent US20260166130A1, “PEPTIDE COMPOSITION HAVING ANGIOGENIC ACTIVITY, AND PHARMACEUTICAL COMPOSITION USING SAME AND COSMETIC COMPOSITION USING SAME” (LABTOMEDI CRO CO.,LTD., priority 2022, published 2026)
